{"source": "paper PMC5218480", "about": "(PLoS ONE, 2017)", "system": "MV-4-11 cells", "test": "Gene expression microarray analysis (Affymetrix PrimeView) and GSEA", "format": "cell-based, human", "design": "RFU PODN (11730768_x_at) / Fold change /veh PODN (11730768_x_at) / RFU LINC00158 (11744669_a_at) / Fold change /veh LINC00158 (11744669_a_at) / RFU DUSP10 (11751237_a_at) / Fold change /veh DUSP10 (11751237_a_at) / RFU ID3 (11757404_x_at) / Fold change /veh ID3 (11757404_x_at) / RFU PLEKHG5 (11737974_s_at) / Fold change /veh PLEKHG5 (11737974_s_at) / RFU LRRC4B (11730491_at) / Fold change /veh LRRC4B (11730491_at) / RFU GIMAP4 (11747438_a_at) / Fold change /veh GIMAP4 (11747438_a_at) / RFU KRT8 (11758183_x_at) / Fold change /veh KRT8 (11758183_x_at) / RFU CNN1 (11734310_a_at) / Fold change /veh CNN1 (11734310_a_at) / RFU VPS37D (11726825_at) / Fold change /veh VPS37D (11726825_at) / RFU C10orf10 (11716522_x_at) / Fold change /veh C10orf10 (11716522_x_at) / RFU KIR2DL2 /// KIR2DL4 /// KIR2DL5A /// KIR2DL5B /// KIR2DS1 /// KIR2DS2 /// KIR2DS3 /// KIR2DS4 /// KIR3DL3 /// KIR3DL3 /// KIR3DS1 (11738374_at) / Fold change /veh KIR2DL2 /// KIR2DL4 /// KIR2DL5A /// KIR2DL5B /// KIR2DS1 /// KIR2DS2 /// KIR2DS3 /// KIR2DS4 /// KIR3DL3 /// KIR3DL3 /// KIR3DS1 (11738374_at) / RFU C1QL1 (11718748_at) / Fold change /veh C1QL1 (11718748_at) / RFU TMPRSS4 (11747572_a_at) / Fold change /veh TMPRSS4 (11747572_a_at) / RFU HAMP (11756126_x_at) / Fold change /veh HAMP (11756126_x_at) / RFU RNFT2 (11725882_a_at) / Fold change /veh RNFT2 (11725882_a_at) / RFU NR4A2 (11747474_a_at) / Fold change /veh NR4A2 (11747474_a_at) / RFU ABCC12 (11746883_a_at) / Fold change /veh ABCC12 (11746883_a_at) / RFU TMEM136 (11760407_x_at) / Fold change /veh TMEM136 (11760407_x_at) / RFU CLDN22 /// WWC2 (11732394_at) / Fold change /veh CLDN22 /// WWC2 (11732394_at) / RFU HLA-DPB1 (11760878_x_at) / Fold change /veh HLA-DPB1 (11760878_x_at) / RFU SPINT1 (11716480_a_at) / Fold change /veh SPINT1 (11716480_a_at) / RFU GAP43 (11754022_s_at) / Fold change /veh GAP43 (11754022_s_at) / RFU A4GNT (11735810_at) / Fold change /veh A4GNT (11735810_at) / RFU PRB3 (11715151_x_at) / Fold change /veh PRB3 (11715151_x_at) / RFU TUBB4B (11761932_at) / Fold change /veh TUBB4B (11761932_at) / RFU CAPN14 (11732068_a_at) / Fold change /veh CAPN14 (11732068_a_at) / RFU TMCC2 (11721928_a_at) / Fold change /veh TMCC2 (11721928_a_at) / RFU IRGQ (11745062_a_at) / Fold change /veh IRGQ (11745062_a_at) / RFU FAM174B (11720279_a_at) / Fold change /veh FAM174B (11720279_a_at) / RFU TMPRSS4 (11748680_a_at) / Fold change /veh TMPRSS4 (11748680_a_at) / RFU FAM212B (11763350_a_at) / Fold change /veh FAM212B (11763350_a_at) / RFU PLEKHG5 (11743358_a_at) / Fold change /veh PLEKHG5 (11743358_a_at) / RFU ZSCAN30 (11745921_a_at) / Fold change /veh ZSCAN30 (11745921_a_at) / RFU CMKLR1 (11741424_a_at) / Fold change /veh CMKLR1 (11741424_a_at) / RFU LOC101060620 /// MAPK8IP1 (11723275_at) / Fold change /veh LOC101060620 /// MAPK8IP1 (11723275_at) / RFU SPTSSB (11747773_x_at) / Fold change /veh SPTSSB (11747773_x_at) / RFU PRSS12 (11739890_at) / Fold change /veh PRSS12 (11739890_at) / RFU BIN1 (11741810_x_at) / Fold change /veh BIN1 (11741810_x_at) / RFU WNT11 (11732464_a_at) / Fold change /veh WNT11 (11732464_a_at) / RFU C10orf10 (11716521_a_at) / Fold change /veh C10orf10 (11716521_a_at) / RFU C5orf56 (11738089_at) / Fold change /veh C5orf56 (11738089_at) / RFU CYB561 (11721691_x_at) / Fold change /veh CYB561 (11721691_x_at) / RFU ANKRD19P (11752326_a_at) / Fold change /veh ANKRD19P (11752326_a_at) / RFU OR2T12 /// OR2T33 /// OR2T8 (11738714_s_at) / Fold change /veh OR2T12 /// OR2T33 /// OR2T8 (11738714_s_at) / RFU VCAN (11748164_a_at) / Fold change /veh VCAN (11748164_a_at) / RFU JSRP1 (11732532_at) / Fold change /veh JSRP1 (11732532_at) / RFU KRTAP10-11 (11738290_x_at) / Fold change /veh KRTAP10-11 (11738290_x_at) / RFU MYO3A (11730013_a_at) / Fold change /veh MYO3A (11730013_a_at) / RFU EBF3 (11725865_a_at) / Fold change /veh EBF3 (11725865_a_at) / RFU CAMK2N1 (11719241_x_at) / Fold change /veh CAMK2N1 (11719241_x_at) / RFU C5orf56 (11738088_a_at) / Fold change /veh C5orf56 (11738088_a_at) / RFU OLFML3 (11715873_a_at) / Fold change /veh OLFML3 (11715873_a_at) / RFU LOC100653217 /// NTM (11731650_a_at) / Fold change /veh LOC100653217 /// NTM (11731650_a_at) / RFU MAPK11 (11762145_a_at) / Fold change /veh MAPK11 (11762145_a_at) / RFU FIZ1 (11724087_x_at) / Fold change /veh FIZ1 (11724087_x_at) / RFU OASL (11726364_x_at) / Fold change /veh OASL (11726364_x_at) / RFU SOX15 (11748057_x_at) / Fold change /veh SOX15 (11748057_x_at) / RFU CD79A (11719716_a_at) / Fold change /veh CD79A (11719716_a_at) / RFU HIST1H1D (11736915_at) / Fold change /veh HIST1H1D (11736915_at) / RFU CASKIN2 (11723855_a_at) / Fold change /veh CASKIN2 (11723855_a_at) / RFU LOC730098 (11760151_x_at) / Fold change /veh LOC730098 (11760151_x_at) / RFU OR4N2 (11742367_at) / Fold change /veh OR4N2 (11742367_at) / RFU PRRT2 (11749266_a_at) / Fold change /veh PRRT2 (11749266_a_at) / RFU SNX32 (11753110_a_at) / Fold change /veh SNX32 (11753110_a_at) / RFU CDHR5 (11726645_a_at) / Fold change /veh CDHR5 (11726645_a_at) / RFU RCAN1 (11760418_a_at) / Fold change /veh RCAN1 (11760418_a_at) / RFU FAM167A (11723789_a_at) / Fold change /veh FAM167A (11723789_a_at) / RFU FAM26E (11764081_at) / Fold change /veh FAM26E (11764081_at) / RFU ISYNA1 (11749810_s_at) / Fold change /veh ISYNA1 (11749810_s_at) / RFU ACY1 (11761880_at) / Fold change /veh ACY1 (11761880_at) / RFU 11764098_at / Fold change /veh 11764098_at / RFU SAMD14 (11745864_x_at) / Fold change /veh SAMD14 (11745864_x_at) / RFU NPB (11741838_a_at) / Fold change /veh NPB (11741838_a_at) / RFU TMPRSS6 (11731388_a_at) / Fold change /veh TMPRSS6 (11731388_a_at) / RFU KRTAP10-2 (11738614_at) / Fold change /veh KRTAP10-2 (11738614_at) / RFU ARHGAP8 /// PRR5-ARHGAP8 (11727945_x_at) / Fold change /veh ARHGAP8 /// PRR5-ARHGAP8 (11727945_x_at) / RFU KRTAP5-7 /// NADSYN1 (11734609_at) / Fold change /veh KRTAP5-7 /// NADSYN1 (11734609_at) / RFU RASL12 (11751679_a_at) / Fold change /veh RASL12 (11751679_a_at) / RFU CDKN2B (11736163_a_at) / Fold change /veh CDKN2B (11736163_a_at) / RFU PRF1 (11729649_at) / Fold change /veh PRF1 (11729649_at) / RFU, ZNF638 /// ZNF638-IT1 / Fold change vs veh, ZNF638 /// ZNF638-IT1 / RFU, PANK3 / Fold change vs veh, PANK3 / RFU, SH3YL1 / Fold change vs veh, SH3YL1 / RFU, ZEB2 / Fold change vs veh, ZEB2 / RFU, NRIP1 / Fold change vs veh, NRIP1 / RFU, PTTG1IP / Fold change vs veh, PTTG1IP / RFU, CAPN2 / Fold change vs veh, CAPN2 / RFU, MED14 / Fold change vs veh, MED14 / RFU, SNORA58 / Fold change vs veh, SNORA58 / RFU, C1orf63 / Fold change vs veh, C1orf63 / RFU, LRRFIP1 / Fold change vs veh, LRRFIP1 / RFU, NDUFAF7 / Fold change vs veh, NDUFAF7 / RFU, SLC12A2 / Fold change vs veh, SLC12A2 / RFU, IBTK / Fold change vs veh, IBTK / RFU, ESF1 / Fold change vs veh, ESF1 / Fold change vs veh, TMEM50B / RFU, TAOK1 / Fold change vs veh, TAOK1 / RFU, ACBD3 / Fold change vs veh, ACBD3 / RFU, TMA16 / Fold change vs veh, TMA16 / RFU, RWDD3 / Fold change vs veh, RWDD3 / RFU, BCAT1 / Fold change vs veh, BCAT1 / RFU, EDEM3 / Fold change vs veh, EDEM3 / RFU, TMEM33 / Fold change vs veh, TMEM33 / RFU, WDR75 / Fold change vs veh, WDR75 / RFU, AHCTF1 / Fold change vs veh, AHCTF1 / RFU, TFRC / Fold change vs veh, TFRC / RFU, ZDHHC17 / Fold change vs veh, ZDHHC17 / RFU, NOM1 / Fold change vs veh, NOM1 / RFU, ARL8B / Fold change vs veh, ARL8B / RFU, ZBTB11 / Fold change vs veh, ZBTB11 / RFU, TAMM41 / Fold change vs veh, TAMM41 / RFU, KIAA1704 /// LOC100996395 / Fold change vs veh, KIAA1704 /// LOC100996395 / RFU, ING1 / Fold change vs veh, ING1 / RFU, TRMT61B / Fold change vs veh, TRMT61B / RFU, FUBP3 / Fold change vs veh, FUBP3 / RFU, TP53 / Fold change vs veh, TP53 / RFU, TNKS2 / Fold change vs veh, TNKS2 / RFU, ZFP14 / Fold change vs veh, ZFP14 / RFU, ACTR2 / Fold change vs veh, ACTR2 / RFU, PPP3R1 / Fold change vs veh, PPP3R1 / RFU, PIK3R1 / Fold change vs veh, PIK3R1 / RFU, HNRNPA1 / Fold change vs veh, HNRNPA1 / RFU, RNF170 / Fold change vs veh, RNF170 / RFU, ZNF28 / Fold change vs veh, ZNF28 / RFU, RNGTT / Fold change vs veh, RNGTT / RFU, OGT / Fold change vs veh, OGT / RFU, BRD1 / Fold change vs veh, BRD1 / RFU, MARS / Fold change vs veh, MARS / RFU, ZNF655 / Fold change vs veh, ZNF655 / RFU, FAHD1 / Fold change vs veh, FAHD1 / RFU, BDP1 / Fold change vs veh, BDP1 / RFU, LRRCC1 / Fold change vs veh, LRRCC1 / RFU, ARID1A / Fold change vs veh, ARID1A / RFU, ZNF146 / Fold change vs veh, ZNF146 / RFU, ZNF330 / Fold change vs veh, ZNF330 / RFU, GPN3 / Fold change vs veh, GPN3 / RFU, C9orf123 / Fold change vs veh, C9orf123 / RFU, N4BP2L2 / Fold change vs veh, N4BP2L2 / RFU, ARFIP1 / Fold change vs veh, ARFIP1 / RFU, FAM179B / Fold change vs veh, FAM179B / RFU, BCL10 / Fold change vs veh, BCL10 / RFU, UHRF1BP1L / Fold change vs veh, UHRF1BP1L / RFU, BET1 / Fold change vs veh, BET1 / RFU, CNOT2 / Fold change vs veh, CNOT2 / RFU, ZNF268 / Fold change vs veh, ZNF268 / Fold change vs veh, ZNF507 / RFU, DGCR2 / Fold change vs veh, DGCR2 / RFU, WDSUB1 / Fold change vs veh, WDSUB1 / Fold change vs veh, HSP90B1 /// MIR3652 / RFU, ADSS / Fold change vs veh, ADSS / RFU, GK / Fold change vs veh, GK / RFU, ZNF148 / Fold change vs veh, ZNF148 / RFU, TAF9 / Fold change vs veh, TAF9 / RFU, SLC1A5 / Fold change vs veh, SLC1A5 / RFU, SLMO2 / Fold change vs veh, SLMO2 / RFU, ABCC4 / Fold change vs veh, ABCC4 / RFU, LOC101060439 /// RAP1B / Fold change vs veh, LOC101060439 /// RAP1B / RFU, RFX7 / Fold change vs veh, RFX7 / RFU, GTPBP10 / Fold change vs veh, GTPBP10 / RFU, CNEP1R1 / Fold change vs veh, CNEP1R1 / RFU, BIVM-ERCC5 /// ERCC5 / Fold change vs veh, BIVM-ERCC5 /// ERCC5 / RFU, ILF3 / Fold change vs veh, ILF3 / RFU 11762660_at / Fold change /veh 11762660_at / RFU VCAN (11757783_s_at) / Fold change /veh VCAN (11757783_s_at) / RFU DDX43 (11728927_at) / Fold change /veh DDX43 (11728927_at) / RFU KRT8 (11758188_x_at) / Fold change /veh KRT8 (11758188_x_at) / RFU NKD1 (11759106_at) / Fold change /veh NKD1 (11759106_at) / RFU SRD5A1 (11742802_a_at) / Fold change /veh SRD5A1 (11742802_a_at) / RFU TPSAB1 /// TPSB2 (11721975_s_at) / Fold change /veh TPSAB1 /// TPSB2 (11721975_s_at) / RFU GSTM3 (11746129_a_at) / Fold change /veh GSTM3 (11746129_a_at) / RFU IL23R (11737362_x_at) / Fold change /veh IL23R (11737362_x_at) / RFU TMEM51 (11727254_a_at) / Fold change /veh TMEM51 (11727254_a_at) / RFU PIWIL2 (11732686_x_at) / Fold change /veh PIWIL2 (11732686_x_at) / RFU ORM1 (11744905_x_at) / Fold change /veh ORM1 (11744905_x_at) / RFU CCDC152 (11743942_at) / Fold change /veh CCDC152 (11743942_at) / RFU ECM1 (11717891_a_at) / Fold change /veh ECM1 (11717891_a_at) / RFU IL23R (11748794_a_at) / Fold change /veh IL23R (11748794_a_at) / RFU TNFAIP8L3 (11732012_x_at) / Fold change /veh TNFAIP8L3 (11732012_x_at) / RFU MBOAT4 (11741988_at) / Fold change /veh MBOAT4 (11741988_at) / RFU 11764193_at / Fold change /veh 11764193_at / RFU TMEM53 (11763286_at) / Fold change /veh TMEM53 (11763286_at) / RFU MAGEB2 (11727129_at) / Fold change /veh MAGEB2 (11727129_at) / RFU TMEM200A (11744735_a_at) / Fold change /veh TMEM200A (11744735_a_at) / RFU CCDC152 (11751479_a_at) / Fold change /veh CCDC152 (11751479_a_at) / RFU FAM211A (11726209_a_at) / Fold change /veh FAM211A (11726209_a_at) / RFU RGS16 (11746705_a_at) / Fold change /veh RGS16 (11746705_a_at) / RFU VCAN (11755009_s_at) / Fold change /veh VCAN (11755009_s_at) / RFU RHOB (11743442_s_at) / Fold change /veh RHOB (11743442_s_at) / RFU RGS16 (11720943_a_at) / Fold change /veh RGS16 (11720943_a_at) / RFU RGS16 (11720944_at) / Fold change /veh RGS16 (11720944_at) / RFU, VPS4B / Fold change vs veh, VPS4B / RFU, CREB1 / Fold change vs veh, CREB1 / RFU, DNAJC13 / Fold change vs veh, DNAJC13 / RFU, GNAQ / Fold change vs veh, GNAQ / RFU, CDK5R1 / Fold change vs veh, CDK5R1 / RFU, ZRANB3 / Fold change vs veh, ZRANB3 / RFU, CUL4A / Fold change vs veh, CUL4A / RFU, CCNY / Fold change vs veh, CCNY / RFU, UFL1 / Fold change vs veh, UFL1 / RFU, COG3 / Fold change vs veh, COG3 / RFU, DIAPH2 / Fold change vs veh, DIAPH2 / RFU, SKA2 / Fold change vs veh, SKA2 / RFU, AFF3 / Fold change vs veh, AFF3 / RFU, LMF1 / Fold change vs veh, LMF1 / RFU, IPO11 / Fold change vs veh, IPO11 / RFU, DFFB / Fold change vs veh, DFFB / RFU, FOXP1 / Fold change vs veh, FOXP1 / RFU, CARD8 / Fold change vs veh, CARD8 / RFU, STRN3 / Fold change vs veh, STRN3 / RFU, ADK / Fold change vs veh, ADK / RFU, RASSF2 / Fold change vs veh, RASSF2 / RFU, WIPF1 / Fold change vs veh, WIPF1 / RFU, LARP1B / Fold change vs veh, LARP1B / RFU, RASA1 / Fold change vs veh, RASA1 / RFU, RB1 / Fold change vs veh, RB1 / RFU, PPFIA1 / Fold change vs veh, PPFIA1 / RFU, MAT2A / Fold change vs veh, MAT2A / RFU, CCT5 / Fold change vs veh, CCT5 / RFU, WDR92 / Fold change vs veh, WDR92 / RFU, CUX1 / Fold change vs veh, CUX1 / RFU, TTC7A / Fold change vs veh, TTC7A / RFU, TMEM135 / Fold change vs veh, TMEM135 / RFU, DEPTOR / Fold change vs veh, DEPTOR / RFU, CPM / Fold change vs veh, CPM / RFU, DNAJB6 / Fold change vs veh, DNAJB6 / RFU, CACNA2D3 / Fold change vs veh, CACNA2D3 / RFU, DTX4 / Fold change vs veh, DTX4 / RFU, TFCP2 / Fold change vs veh, TFCP2 / RFU, GMCL1 /// GMCL1P1 / Fold change vs veh, GMCL1 /// GMCL1P1 / RFU, AEBP2 / Fold change vs veh, AEBP2 / RFU, SNHG1 /// SNORD22 /// SNORD25 /// SNORD26 /// SNORD27 /// SNORD28 /// SNORD29 /// SNORD31 / Fold change vs veh, SNHG1 /// SNORD22 /// SNORD25 /// SNORD26 /// SNORD27 /// SNORD28 /// SNORD29 /// SNORD31 / Fold change (Aza/veh), C12orf56 (ProbeSet 11735607_a_at) / Fold change (ACY-1035/veh), C12orf56 (ProbeSet 11735607_a_at) / Fold change (Aza/veh), FGFR1OP (ProbeSet 11751329_s_at) / Fold change (ACY-1035/veh), FGFR1OP (ProbeSet 11751329_s_at) / Fold change (Aza/veh), VPS36 (ProbeSet 11739960_a_at) / Fold change (ACY-1035/veh), VPS36 (ProbeSet 11739960_a_at) / RFU SYPL1 (11715823_x_at) / Fold change /veh SYPL1 (11715823_x_at) / RFU IGFBP7 (11715501_s_at) / Fold change /veh IGFBP7 (11715501_s_at) / RFU REEP3 (11722064_at) / Fold change /veh REEP3 (11722064_at) / RFU IGLL1 (11728026_x_at) / Fold change /veh IGLL1 (11728026_x_at): dose or concentration left out as unconfirmed", "details": "ProbeSet 11745260_x_at; LIST B"}
{"molecule": "Nc1ccc(-c2cccs2)cc1NC(=O)c1ccc2c(c1)cc(C1CC1)n2CCN1CCOCC1", "note": "[ACY-1035]", "values": [{"measurement": "Fold change vs veh, SLC12A2", "value": 0.87}]}
